This passage reports EC50, IC50 and Kd results from patent publication US11518764B2, “Substituted heteroaryls as inhibitors of the BCL6 BTB domain protein-protein interaction” (Ontario Institute for Cancer Research (OICR), priority 2018, dated 2022).

Test [1] deals with BCL6 reporter construct (3xBCL6-TK-Luc) in SuDHL4 cells. The experiment in a line: Cell-based luciferase assay. The following applies: Homo sapiens, SU-DHL-4, 48 h, read-out: Luciferase-Assay EC50, uM), SuDHL4-3xBCL6-TK-Luc cells, two days, high dose 10 uM. The procedure, abridged: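 SuDHL4 cells stably carrying a 3×BCL6-site TK-promoter firefly luciferase reporter, seeded at 15,000 cells/well, were dosed over a 10-point range (top 10 uM) and grown two days at 37 °C, 5% CO2. Luminescence then read after adding neolite reagent at room temperature.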

The next test relates to Karpas422 cells. Kind of test: Tumor cell growth inhibition assay. The class given is cell-based. Particulars: Homo sapiens, KARPAS-422, 144 h, read-out: Tumor Growth Inhibition in Karpas-422 (IC50, uM), Karpas422 cells, six days, ATPlite. Put shortly:
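Karpas422 cells (2,000/well) in Alpha-MEM with 10% FBS dosed across 10 concentrations (top 5 uM) and grown six days at 37° C., 5% CO2. Viability read as ATPlite luminescence.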
(Cellular ATP, detected with luciferase, serves as a proxy for viable cell number.)

Another test has as its target BCL6 BTB domain (Homo sapiens (Human), UniProt P41182). The experiment in a line: Surface plasmon resonance (SPR) assay. In kind it is binding. Particulars: BCL6 BTB domain captured on SA chip, single cycle kinetics.

A word on the EC50: it is the concentration needed to bring the measured effect to its halfway point. The term IC50 denotes the midpoint of a concentration-inhibition curve. Broadly, the Kd is the equilibrium constant for the complex coming apart.

For the compound `C[C@H](C1CC1)N1CCN(c2cc(NC(=O)Cn3cc(-c4cc(C(N)=O)c(O)c(F)c4F)c4c(=O)n(C)cnc43)c(Cl)c(F)n2)[C@@H](C)C1` [Compound I-455], the EC50 in test [1] was found to be 0.307 µM. The IC50 in the test on Karpas422 cells is 0.204 µM. Besides, binding at BCL6 BTB domain was put at a Kd of 11.2 nM.

With `CC1N=CC(C#CCn2cnc3c(c(-c4cc(C(N)=O)c(O)c(F)c4F)cn3CC(=O)Nc3cc(N4CCN(C)C[C@@H]4C)nc(F)c3Cl)c2=O)=N1` (stereo partly drawn) [Compound I-456], the half-maximal effective concentration (EC50) in test [1] is 0.0858 µM. For the same compound, the IC50 in the test on Karpas422 cells was found to be 0.0554 µM. The compound also yielded a Kd at BCL6 BTB domain of 1.87 nM.

Regarding `C[C@H]1COCCN1c1cc(NC(=O)Cn2cc(-c3cc(F)c(O)c(C(N)=O)c3)c3c(=O)n(CC#Cc4cnn(C)c4)cnc32)c(Cl)cn1` [Compound I-457], the concentration giving a half-maximal response (EC50) in test [1] came out at 0.328 µM. In addition, the concentration for half-maximal inhibition (IC50) in the test on Karpas422 cells is 0.183 µM. For the same compound, binding at BCL6 BTB domain was put at a Kd of 13.1 nM.

For `CC(C)CN1CCN(c2cc(NC(=O)Cn3cc(-c4cc(C(N)=O)c(O)c(F)c4F)c4c(=O)n(C)cnc43)c(Cl)c(F)n2)[C@@H](C)C1` [Compound I-458], in test [1], the 50% effective concentration (EC50) came to 0.963 µM. In addition, in the test with Karpas422 cells, the IC50 is 3.68 µM. Further, the affinity at BCL6 BTB domain, expressed as Kd, was 55.8 nM.

In the case of `C[C@H]1CN(CC(O)CCO)CCN1c1cc(NC(=O)Cn2cc(-c3cc(C(N)=O)c(O)c(F)c3F)c3c(=O)n(C)cnc32)c(Cl)c(F)n1` (stereo partly drawn) [Compound I-459, 5-(7-(2-((3-chloro-6-((2S)-4-(2,4-dihydroxybutyl)-2-methylpiperazin-1-yl)-2-fluoropyridin-4-yl)amino)-2-oxoethyl)-3-methyl-4-oxo-4,7-dihydro-3H-pyrrolo[2,3-d]pyrimidin-5-yl)-3,4-difluoro-2-hydroxybenzamide], the 50% effective concentration (EC50) in test [1] was found to be 0.945 µM. The IC50 with Karpas422 cells is 1.06 µM. Moreover, at BCL6 BTB domain, binding was put at a Kd of 6.55 nM.

With `C[C@H]1CN(CC2CCO2)CCN1c1cc(NC(=O)Cn2cc(-c3cc(C(N)=O)c(O)c(F)c3F)c3c(=O)n(C)cnc32)c(Cl)c(F)n1` (stereo partly drawn) [Compound I-460, 5-(7-(2-((3-chloro-2-fluoro-6-((2S)-2-methyl-4-(oxetan-2-ylmethyl)piperazin-1-yl)pyridin-4-yl)amino)-2-oxoethyl)-3-methyl-4-oxo-4,7-dihydro-3H-pyrrolo[2,3-d]pyrimidin-5-yl)-3,4-difluoro-2-hydroxybenzamide], in test [1], the half-maximal effective concentration (EC50) amounted to 0.102 µM. Besides, the IC50 in the test with Karpas422 cells turned out to be 0.223 µM. Further, on BCL6 BTB domain, the equilibrium dissociation constant (Kd) is 9.87 nM.

Consider `CO[C@@H](C)CN1CCN(c2cc(NC(=O)Cn3cc(-c4cc(C(N)=O)c(O)c(F)c4F)c4c(=O)n(C)cnc43)c(Cl)c(F)n2)[C@@H](C)C1` [Compound I-462], for which the 50% effective concentration (EC50) in test [1] was found to be 0.184 µM. For the same compound, the IC50 in the test on Karpas422 cells turned out to be 0.289 µM. On BCL6 BTB domain, binding was put at a Kd of 50.3 nM.

Turning to `C[C@H]1CN(CC(CO)CO)CCN1c1cc(NC(=O)Cn2cc(-c3cc(C(N)=O)c(O)c(F)c3F)c3c(=O)n(C)cnc32)c(Cl)c(F)n1` [Compound I-463, (S)-5-(7-(2-((3-chloro-2-fluoro-6-(4-(3-hydroxy-2-(hydroxymethyl)propyl)-2-methylpiperazin-1-yl)pyridin-4-yl)amino)-2-oxoethyl)-3-methyl-4-oxo-4,7-dihydro-3H-pyrrolo[2,3-d]pyrimidin-5-yl)-3,4-difluoro-2-hydroxybenzamide], in test [1], the EC50 worked out at 3.53 µM. The IC50 in the test on Karpas422 cells turned out to be 1.28 µM. The compound also yielded a Kd at BCL6 BTB domain of 8.56 nM.

`C[C@H]1CN(CCC(F)(F)F)CCN1c1cc(NC(=O)Cn2cc(-c3cc(C(N)=O)c(O)c(F)c3F)c3c(=O)n(C)cnc32)c(Cl)c(F)n1` [Compound I-464]: the EC50 in test [1] worked out at 0.213 µM. Further, the IC50 in the test on Karpas422 cells was 0.421 µM. On BCL6 BTB domain, the affinity, expressed as Kd, was 83.8 nM.

Regarding `Cn1cnc2c(c(-c3cc(C(N)=O)c(O)c(F)c3F)cn2CC(=O)Nc2cc(N3C4CCC3CN(CC(F)(F)F)C4)ncc2Cl)c1=O` [Compound I-465], the concentration for a half-maximal effect (EC50) in test [1] is 4.47 µM. The half-maximal inhibitory concentration (IC50) in the test with Karpas422 cells came out at 1.17 µM. The same compound returned a dissociation constant Kd on BCL6 BTB domain of 84.9 nM.

For the compound `Cn1cnc2c(c(-c3cc(Cl)c(O)c(C(N)=O)c3)cn2CC(=O)Nc2cc(N3C4CCC3CN(CC(F)(F)F)C4)ncc2Cl)c1=O` [Compound I-466], the EC50 in test [1] came to 3.81 µM. Further, the concentration for half-maximal inhibition (IC50) in the test with Karpas422 cells came out at 0.773 µM. This compound also registered a Kd on BCL6 BTB domain of 519 nM.

Take `Cn1cnc2c(c(-c3cc(F)c(O)c(C(N)=O)c3)cn2CC(=O)Nc2cc(N3C4CCC3CN(CC(F)(F)F)C4)ncc2Cl)c1=O` [Compound I-467]: the EC50 in test [1] came to 1.23 µM. Besides, the 50% inhibitory concentration (IC50) with Karpas422 cells came to 0.496 µM. The Kd at BCL6 BTB domain was found to be 175 nM.

With `Cn1cnc2c(c(-c3cc(C(N)=O)c(O)c(F)c3F)cn2CC(=O)Nc2cc(N3Cc4ccncc4C3)ncc2Cl)c1=O` [Compound I-468], the half-maximal effective concentration (EC50) in test [1] was found to be 0.461 µM. In the test on Karpas422 cells, the IC50 was determined as 0.417 µM. This compound had a Kd at BCL6 BTB domain of 23.5 nM.

Take `C[C@H]1CN(CC(F)F)CCN1c1cc(NC(=O)Cn2cc(-c3cc(C(N)=O)c(O)c(F)c3F)c3c(=O)n(C)cnc32)c(Cl)c(F)n1` [Compound I-469]: the EC50 in test [1] came to 0.141 µM. For the same compound, the half-maximal inhibitory concentration (IC50) with Karpas422 cells was found to be 0.153 µM. The affinity on BCL6 BTB domain, expressed as Kd, was 35.5 nM.

`C[C@H]1COCCN1c1cc(NC(=O)Cn2cc(-c3cc(F)c(O)c(C(N)=O)c3F)c3c(=O)n(C)cnc32)c(Cl)c(F)n1` [Compound I-472]: the EC50 in test [1] is 3.8 µM. Moreover, the IC50 in the test with Karpas422 cells turned out to be 10 µM. Further, on BCL6 BTB domain, the affinity, expressed as Kd, was 55.7 nM.

With `Cn1cnc2c(c(-c3cc(Cl)c(O)c(C(N)=O)c3)cn2CC(=O)Nc2cc(N3C[C@H]4CC[C@@H](C3)N4CC(F)(F)F)ncc2Cl)c1=O` [Compound I-474], the EC50 in test [1] came out at 0.216 µM. Besides, the half-inhibitory concentration (IC50) in the test on Karpas422 cells worked out at 0.237 µM. For the same compound, the Kd at BCL6 BTB domain turned out to be 35.8 nM.

For `Cn1cnc2c(c(-c3cc(C(N)=O)c(O)c(F)c3F)cn2CC(=O)Nc2cc(N3C[C@H]4CC[C@@H](C3)N4CC(F)(F)F)ncc2Cl)c1=O` [Compound I-475], the 50% effective concentration (EC50) in test [1] is 0.484 µM. For the same compound, in the test on Karpas422 cells, the IC50 worked out at 0.576 µM. The compound also had a Kd at BCL6 BTB domain of 50.5 nM.

Regarding `Cn1cnc2c(c(-c3cc(F)c(O)c(C(N)=O)c3)cn2CC(=O)Nc2cc(N3C[C@H]4CC[C@@H](C3)N4CC(F)(F)F)ncc2Cl)c1=O` [Compound I-476], in test [1], the EC50 was 0.159 µM. Besides, the IC50 in the test on Karpas422 cells worked out at 0.118 µM. At BCL6 BTB domain, the Kd turned out to be 13.7 nM.

`CN1CC2CCC(C1)N2c1cc(NC(=O)Cn2cc(-c3cc(F)c(O)c(C(N)=O)c3)c3c(=O)n(C)cnc32)c(Cl)cn1` [Compound I-477]: the EC50 in test [1] was found to be 0.328 µM. Also, the IC50 in the test with Karpas422 cells worked out at 0.272 µM. At BCL6 BTB domain, this compound yielded a Kd of 10.1 nM.

As to `CN1CCN(c2cc(NC(=O)Cn3cc(-c4cc(F)c(O)c(C(N)=O)c4)c4c(=O)n(CC#Cc5cnn(C)c5)cnc43)c(Cl)cn2)CC1` [Compound I-478], the EC50 in test [1] was found to be 0.366 µM. Moreover, in the test with Karpas422 cells, the IC50 worked out at 0.182 µM. The compound also yielded a Kd at BCL6 BTB domain of 4.58 nM.

Regarding `CN1CCC2(C1)CN(c1cc(NC(=O)Cn3cc(-c4cc(Cl)c(O)c(C(N)=O)c4)c4c(=O)n(C)cnc43)c(Cl)cn1)C2` [Compound I-479], the concentration giving a half-maximal response (EC50) in test [1] was determined as 1.43 µM. Moreover, the half-maximal inhibitory concentration (IC50) in the test on Karpas422 cells is 0.778 µM. Besides, binding at BCL6 BTB domain was characterised by a dissociation constant (Kd) of 16.2 nM.

As to `C[C@H]1CN(C)CCN1c1cc(NC(=O)Cn2cc(-c3cc(F)c(O)c(C(N)=O)c3)c3c(=O)n(CC#Cc4cnn(C)c4)cnc32)c(Cl)cn1` [Compound I-480], the EC50 in test [1] was 2.21 µM. For the same compound, the concentration for half-maximal inhibition (IC50) in the test with Karpas422 cells was 0.704 µM. Besides, the Kd at BCL6 BTB domain stood at 137 nM.
